Test results as given in the supplement of paper PMC10949913.

Tests used:
Conditions in all cases: 48 h
NCI-H295R [1] = test: AC50 viability; higher = less potent
Summary of the method: (§1)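 AC50 and area under the curve values derive from fitted concentration-response curves, restricted to inhibitory or non-responding curve classes. The curves came from three adrenocortical carcinoma cell lines in 1,536-well plates, each receiving 23 nL of every library compound at 11 concentrations. Viability was read by CellTiter-Glo luminescence after 48 h, normalised per plate to vehicle and empty-well controls.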

NCI-H295R [2] = test: area under concentration-response curve (viability) (AUC (a.u.)); higher = less active
Summary of the method: as §1

CU-ACC2 = test: as above
Summary of the method: as §1

CU-ACC1 = test: as above
Summary of the method: as §1

Row | SMILES | AC50 viability (NCI-H295R [1]) [µM] | area under concentration-response curve (NCI-H295R [2]) | area under concentration-response curve (CU-ACC2) | area under concentration-response curve (CU-ACC1)
1 | CCN1CCN(CC1)CC(=O)NC2=CC=C(C3=C2C4=C(S3)C=CC=C4)C5=C6O\C(=C/C(=O)C6=CC=C5)N7CCOCC7 | 2.57 | 494 | 610 | 555
2 | CO[C@H]1C[C@H]2OC[C@@]2(OC(C)=O)[C@H]3[C@H](OC(=O)C4=CC=CC=C4)[C@]5(O)C[C@H](OC(=O)[C@H](O)[C@@H](NC(=O)OC(C)(C)C)C6=CC=CC=C6)/C(=C(/[C@@H](OC)C(=O)[C@]13C)C5(C)C)C | 0.934 | 382 | 565 | 520
3 | CCCCN(CCCC)CCC(O)c1cc2c(Cl)cc(Cl)cc2c2cc(C(F)(F)F)ccc12.Cl (stereo not drawn) | 23.5 | 548 | 615 | 538
4 | O=C(Nc1ncc(-c2cc(C(F)F)nn2-c2c(Cl)cccc2Cl)s1)C1CC1 | 0.661 | 467 | 465 | 501
5 | Cc1cc2c(F)c(Oc3ncnn4cc(OCC(C)OC(=O)C(C)N)c(C)c34)ccc2[nH]1 (stereo not drawn) | 18.6 | 481 | 468 | 473
6 | COC1=CC=CC2=C1C(=NC(=N2)C3=CC=CS3)NN4C(=O)\C=C(C)/C4=O | 5.9 | 438 | 489 | 423
7 | c1cn2cc(-c3ccc4cn[nH]c4c3)nc(Nc3ccc(N4CCOCC4)cc3)c2n1 | 7.42 | 497 | 568 | 509
8 | C[C@H]1Oc2cc(cnc2N)-c2c(nn(C)c2C#N)CN(C)C(=O)c2ccc(F)cc21 | 23.5 | 505 | 557 | 529
9 | CC(C)(C)C1=CC(=C(NC(=O)C/2=C/NC3=C(C=CC=C3)C2=O)C=C1O)C(C)(C)C | 18.6 | 426 | 572 | 532
10 | COc1ncc(-c2ccc3nccc(-c4ccnnc4)c3c2)cc1N[S+](=O)([O-])c1ccc(F)cc1F | 0.059 | 362 | 441 | 362
11 | COc1cc(C(N)=O)ccc1NC(=O)[C@@H]1N[C@@H](CC(C)(C)C)[C@@]2(C(=O)Nc3cc(Cl)ccc32)[C@H]1c1cccc(Cl)c1F | 20.9 | 536 | 604 | 495
12 | C[C@H](CN(C)C)Oc1nc(Nc2cc3cccc(Cl)c3cn2)cnc1C#N | 14.8 | 456 | 585 | 491
13 | CCC[C@H](N[C@H]1CCc2cc(F)cc(F)c2C1)C(=O)Nc1cn(C(C)(C)CNCC(C)(C)C)cn1 | 23.5 | 455 | 584 | 522
14 | C[C@@H]1COCCN1c1cc(C2([S@+](C)(=N)[O-])CC2)nc(-c2ccnc3[nH]ccc23)n1 | 16.6 | 525 | 491 | 524
15 | Cc1cccc(/C=N/Nc2cc(N3CCOCC3)nc(OCCc3ccccn3)n2)c1 | 18.6 | 518 | 573 | 531
16 | COC1=CC=C(C=C1)C2=NC3=CC(=CC=C3[NH]2)/C4=N/NC(=O)CC4C (stereo not drawn) | 18.6 | 541 | 632 | 532
17 | C[C@H]1CCC/C=C/C2C[C@H](O)C[C@H]2[C@H](O)/C=C/C(=O)O1 (stereo partly drawn) | 0.263 | 346 | 389 | 390
18 | COc1ccc(-n2c(SCCCN3C(=O)c4cccc5cccc(c45)C3=O)nnc2-c2ccncc2)cc1 | 3.32 | 406 | 406 | 422
19 | Nc1nc2ccc(OC(F)(F)F)cc2s1 | 0.00372 | 503 | 431 | 493
20 | COc1cc([C@@H]2c3cc4c(cc3[C@H](O)[C@H]3COC(=O)[C@H]23)OCO4)cc(OC)c1OC | 0.0209 | 359 | 464 | 452
21 | NC(=O)[C@@H](CCC(F)(F)F)N(Cc1ccc(-c2ncon2)cc1F)[S+](=O)([O-])c1ccc(Cl)cc1 | 20.9 | 469 | 476 | 441
22 | CN1\C(=C(O)/C2=C(C=C(Cl)S2)[S+]1([O-])=O)C(=O)NC3=NC=CC=C3 | 0.118 | 380 | 421 | 434
23 | CCCCc1oc2ccc(N[S+](C)(=O)[O-])cc2c1C(=O)c1ccc(OCCCN(CCCC)CCCC)cc1 | 7.42 | 486 | 563 | 477
24 | COc1cc([C@@H]2c3cc4c(cc3[C@@H](O[C@@H]3O[C@@H]5CO[C@@H](c6cccs6)O[C@H]5[C@H](O)[C@H]3O)[C@H]3COC(=O)[C@H]23)OCO4)cc(OC)c1O | 11.8 | 532 | 608 | 509

Row | SMILES | AC50 viability (NCI-H295R [1]) [µM] | area under concentration-response curve (NCI-H295R [2]) | area under concentration-response curve (CU-ACC2) | area under concentration-response curve (CU-ACC1)
25 | Nc1ncnc2c1ncn2[C@@H]1O[C@H](CO)C[C@H]1O | 20.9 | 528 | 612 | 550
26 | COc1ccc(-n2c(C)c([N+](=O)[O-])c3ccc(O)cc32)cc1 | 14.8 | 549 | 615 | 519
27 | CC(C)n1ncnc1-c1cn2c(n1)-c1ccc(O[C@@H](C)C(N)=O)cc1OCC2 | 1.05 | 491 | 582 | 364
28 | C/C(=C\c1csc(C)n1)[C@@H]1C[C@@H]2O[C@]2(C)CCC[C@H](C)[C@H](O)[C@@H](C)C(=O)C(C)(C)[C@@H](O)CC(=O)O1 | 0.0118 | 346 | 548 | 467
29 | CC[C@]1(O)C[C@H]2CN(CCC3=C([NH]C4=C3C=CC=C4)[C@@](C2)(C(=O)OC)C5=C(OC)C=C6N(C)[C@H]7[C@](O)([C@H](OC(C)=O)[C@]8(CC)\C=C/CN9CC[C@]7([C@H]89)C6=C5)C(=O)OC)C1 | 3.32 | 444 | 560 | 504
30 | CN1c2ccccc2C(=O)N2CCc3c([nH]c4ccccc34)C21 (stereo not drawn) | 2.63 | 512 | 633 | 506
31 | COc1ccc(-c2ccc3c(N4CCOCC4)nc(N4C[C@@H](C)O[C@@H](C)C4)nc3n2)cc1CO | 0.934 | 468 | 469 | 464
32 | CC(C)c1onc(-c2c(Cl)cccc2Cl)c1COc1ccc(/C=C/c2cccc(C(=O)O)c2)c(Cl)c1 | 13.2 | 480 | 508 | 442
33 | Cc1[nH]c2ccccc2c1CCNCc1ccc(/C=C/C(=O)NO)cc1 | 4.17 | 376 | 403 | 378
34 | O=C1S/C(=C\c2ccc(OCc3cccc(B(O)O)c3)cc2)C(=O)N1Cc1ccc(F)cc1 | 13.2 | 463 | 488 | 442
35 | O=C(Nc1ccncc1)C(=O)c1cn(Cc2ccc(Cl)cc2)c2ccccc12 | 0.372 | 418 | 419 | 471
36 | COc1ccc(-c2ccc3c(N4CCOC[C@@H]4C)nc(N4CCOC[C@@H]4C)nc3n2)cc1CO | 0.417 | 387 | 485 | 431
37 | CCOC(=O)[C@H](CCc1ccccc1)N[C@@H](C)C(=O)N1CCC[C@H]1C(=O)O | 10.5 | 417 | 458 | 300
38 | Nc1nccc(-c2ccc3noc(-c4ccc(Cl)cc4)c3c2)n1 | 0.263 | 354 | 345 | 344
39 | O=C(/C=C/c1cccnc1)NCCCCC1CCN(C(=O)c2ccccc2)CC1 | 0.0209 | 403 | 355 | 300
40 | Cc1nc(NC(=O)N2CCCC2C(N)=O)sc1-c1ccnc(C(C)(C)C(F)(F)F)c1 (stereo not drawn) | 13.2 | 548 | 626 | 531
41 | CC(C)NC(=O)[C@H]1CC[C@@H](n2c(NC(=O)c3ccc(F)cc3)nc3ccc(CN4CCC(C(C)(C)O)CC4)cc32)CC1 | 9.11 | 612 | 626 | 465
42 | COc1ccc(OC)c(-c2nnc3ccc(-c4ccc(OC)c(O[C@@H]5CCOC5)c4)nn23)c1 | 5.9 | 541 | 624 | 482
43 | CCCCc1ccc2[nH]c(NC(=O)OC)nc2c1 | 0.148 | 438 | 511 | 480
44 | NC(=O)Nc1cc(-c2ccc(CN3CCOCC3)cc2)sc1C(N)=O | 6.61 | 519 | 597 | 540
45 | C=CCc1cccc(/C=N/NC(=O)CN2CCN(Cc3ccccc3)CC2)c1O | 26.3 | 587 | 650 | 523
46 | Oc1ccc(Nc2nc(-c3ccc(Cl)cc3)cs2)cc1 | 16.6 | 474 | 496 | 403
47 | COC(=O)c1ccc([C@H]2c3[nH]c4ccccc4c3C[C@H](C(=O)OC)N2C(=O)CCl)cc1 | 0.263 | 356 | 360 | 385
